Values of other authors, collected in US20190150439A1, “SOLUBLE LIQUID FORMULATIONS OF QUINCLORAC AMMONIUM SALTS” (BASF SE, priority 2012, published 2019).

Conditions: pH 7 at 20° C.

For `O=C(O)c1c(Cl)ccc2cc(Cl)cnc12` [Quinclorac, 3,7-dichloro-8-quinolinecarboxylic acid], the solubility in water is listed as 0.065 mg/kg.
